For data set [1], the system named is hippocampal slice neurons. The data set can be described thus: long-term potentiation (LTP) of hippocampal slices treated with Aβ after in vivo treatment. Details: species or system rat. The conditions noted are these: for neuroprotective activity based on LTP signal, model of Alzheimer disease: administered in vivo to rats prior to extraction of hippocampus, beta-amyloid treatment. The protocol: FIG. 3B is a graphic representation showing the LTP caused by in vitro addition of Aβ, where the decay of LTP of hippocampal slice neurons characterized by a decrease of pop-spike amplitude (%) in a hippocampal slice treated with Aβ.
SkQR1 Aβ was added 15 min before the LTP induction with high-frequency electric stimulation (arrow). The decay of LTP (i.e. decrease of pop-spike amplitude) in a hippocampal slice treated with Aβ can be prevented by SkQR1 treatment.
FIG. 16 is a bar graph comparing the neuroprotective effects of preferred SkQ mitochondria-targeted antioxidants of the invention when administered in vivo in a model of Alzheimer disease.
As a model of cell memory, an electric response of a hippocampal slice (long-term potentiation, LTP) was used (Malenka, et al., Science 285:1870-1874 (1999)). A direct experiment was performed showing the prevention of Aβ toxicity in hippocampus by in vivo treatment of rats with 1 μmol SkQR1 per kg of body weight. The compound was injected intraperitoneally into the animal 24 hours before hippocampal slices were obtained to measure LTP. Some slices were pretreated with Aβ for 15 minutes. As is seen in FIG. 3B, Aβ impaired LTP relative to untreated control.
FIG. 16 provides a comparison of the neuroprotective effects of SkQ1, SkQR1 and C12TPP based on the LTP signal in neurons of hippocampal slices. Ab stands for beta-amyloid treatment. […] All SkQs and C12TPP were administered in vivo to rats prior the extraction of hippocampus.

A further data set concerns mROS. The conditions noted are these: in vivo; cited from earlier work.
Data set [2] deals with rats after transient middle cerebral artery occlusion. The experiment in a line: transient middle cerebral artery occlusion, brain infarct volume (TTC staining). The format is in vivo, rat. Conditions: single intraperitoneal injection 0.5-2 μmol/kg body weight; 24 h before 60 min occlusion; studied 24 h after occlusion. The protocol: Several effects of SkQs were observed when brain functions were studied. Where indicated, 1 μmol SkQR1 per kg of body weight was injected intraperitoneally 24 h before the 60 min occlusion of the artery. The ischemia effect was studied 24 h after the occlusion (Plotnikov, et al., Biochemistry (Mosc) 75:145-150 (2010) here and below, p<0.05 for SkQ effect).

Data set [3] has the same test system. The data set can be described thus: limb-placing test after transient middle cerebral artery occlusion. The conditions noted are these: after injection of SkQR1; first day after induction of ischemia. It is filed as in vivo, rat. As to the method:
Behavioral tests were performed 1 day before the induction of ischemia and on the first day after the induction of ischemia. The limb-placing test was used to evaluate the neurological deficit estimated by a conventional 14-point scale with modifications as described in Jolkkonen, et al., Eur. J. Pharmacol., 400:211-219 (2000)). The test had 7 limb-placing tasks that assess the sensorimotor integration of forelimb and hindlimb responses to tactile and proprioceptive stimulation.

The test system of data set [4] is hippocampal slice neurons. The experiment in a line: LTP of hippocampal slices, nootropic activity. The conditions noted are these: administered in vivo; FIG. 15. The source says: FIG. 15 is a bar graph showing the nootropic activity of preferred SkQ mitochondria-targeted antioxidants of the invention when administered to animals in vivo.
The subject of data set [5] is Wistar rats. The experiment in a line: limb-placing test after focal open severe brain trauma. It is filed as in vivo, rat. Conditions: 100 nmol/kg i.p. 1 h after trauma then daily for four days, 12-score scale, mean±SEM. The protocol:
(§1) In this study, we, the inventors, employed our modification of the earlier used model of focal open severe brain trauma in rats. The study was performed on male Wistar rats with body weight of 180-250 g. Before the surgery, the animals were anesthetized by an intraperitoneal injection of 3% chloral hydrate (330 mg/kg). To create the trauma, the left frontal part of the skull was trepanized above the sensorimotor cortex zone, and a movable Teflon piston 4 mm in diameter with depth of insertion of 2.5 mm was placed into it; this piston was struck from the height of 10 cm with a 50-g load sliding along a directing rail. Localization of the sensorimotor cortex zone was determined based on data described in [14].
SkQR1 (100 nmol/kg) was injected intraperitoneally 1 h after the trauma and then daily in the same dose during the following four days.
Behavioral “limb-placing test” was performed 24 h before the operation and then on the third and seventh days after the trauma. […] The resulting score on this scale is determined as the sum of points obtained in six tests assessing the response of the forelimbs and hindlimbs to tactile and proprioceptive stimulation in the presence of obvious reflexes. […]
The results are expressed as the mean±standard error of mean. […] The statistical significance of differences in the damaged volumes was assessed using Student's t-test at the significance level of p<0.05.

The subject of data set [6] is Wistar rats. The data set can be described thus: damaged focal volume (morphometry) after focal open severe brain trauma. It is filed as in vivo, rat. The conditions noted are these: seventh day after trauma; 100 nmol/kg i.p. 1 h after trauma then daily for four days; mean±SEM. The protocol:
as §1, with “[14]. […]” for “[14].”
A magnetic resonance imaging (MRI) study was performed as described in [15] using a BioSpec 70/30 (Bruker, Germany) with magnetic field induction of 7 T and gradient of 105 mT/m. The damaged focal volume was determined morphometrically on the 7th day after the trauma. […] The volume of the lesion was determined as a cylinder with V=ΣSn×d, where d is thickness of the section pair (200 μm); Sn is the area of the lesion in the section in mm2; Σ is the sum of volumes of ischemic damage in the sections using an Image J program (Bethesda Md., USA).
The results are expressed as the mean±standard error of mean. […]

The test system of a further data set is AD patients. Conditions: human, in vivo; cited from earlier work.

Structures are written as SMILES.

On to `CCCCCCCCCCCC[P+](c1ccccc1)(c1ccccc1)c1ccccc1` [C12TPP], for which, in data set [1] (FIG. 16), the “neuroprotective activity compared to SkQ” value is “lower but still sufficient” and the “neuroprotective activity based on LTP signal, model of Alzheimer disease” value is “neuroprotective activity”.

`COC1=C(OC)C(=O)C(CCCCCCCCCC[P+](c2ccccc2)(c2ccccc2)c2ccccc2)=C(C)C1=O` [MitoQ]: the “outcome of targeting the antioxidant to quench mROS” value with mROS is “failed”.

On to `CC/N=c1/cc2oc3cc(NCC)c(C)cc3c(-c3ccccc3C(=O)OCCCCCCCCCCC3=CC(=O)C(C)=C(C)C3=O)c-2cc1C` [SkQR1, plastoquinonyl decylrhodamine 19], for which the “infarct volume in brain” value in data set [2] is “strongly decreased”. In addition, in data set [3], the “behavioral defects, limb-placing test” value is on record as “decrease”. The “neuroprotective activity based on LTP signal, model of Alzheimer disease” value in data set [1] (FIG. 16) is on record as “neuroprotective activity”. The “impairment (decay) of LTP caused by Aβ” value in data set [1] (in vivo treatment (SkQR1 1 μmol/kg i.p. 24 hours before slices), Aβ added to slices for 15 min) is “prevented such impairment”. For the same molecule, the “LTP signal (nootropic activity)” value in data set [4] is on record as “clearly stimulates LTP”. For the same molecule, the “limb-placing test score, right limbs” value with Wistar rats [5] (seventh day after trauma) stood at 7.4±0.8 points; in the data set with Wistar rats [5] (third day after trauma) it was 6.6±0.8 points. In addition, the damaged volume with Wistar rats [6] turned out to be 15±4 mm3.

On to `O=C1O[C@H]([C@@H](O)CO)C(O)=C1O` [ascorbate], for which the safety result in the data set on AD patients is recorded as “safe”.

On to `O=C(O)CCCCC1CCSS1` (stereo not drawn) [α-lipoate], for which, in the data set with AD patients, the “efficacy in treating AD patients” value is given as “ineffective” and the safety entry is “safe”.

With `Cc1c(C)c2c(c(C)c1O)CC[C@@](C)(CCC[C@H](C)CCC[C@H](C)CCCC(C)C)O2` [α-tocopherol], in the data set on AD patients, the “efficacy in treating AD patients” value is on record as “ineffective” and the safety result is “safe”.

These data come from US20140329776A1, “Mitochondria-Targeted Antioxidants for Treatment of Age-Related Brain Disorders” (MITOTECH S.A., priority 2011, published 2014).
